Assay results from patent publication US20250051283A1, “THERAPEUTIC COMPOUNDS AND METHODS” (priority 2023, published 2025).

biological target: T1, EV-D68 2A^pro (WT-2A^pro, strain US/KY/14-18953, expressed in E. coli BL21(DE3) from pE-SUMOstar vector) (enterovirus D68, UniProt A0A097BW19); assay: FRET-based enzymatic assay of EV-D68 2A^pro inhibition (FRET substrate Dabcyl-KIRIVNT/GPGFGGE-Edans); format: biochemical
T1 construct: E. coli-codon-optimised gene, pE-SUMOstar, His-SUMO tag (removed with SUMO protease for nontagged form), E. coli BL21(DE3), Ni-NTA; 7JRE is the C107A mutant
Method: (§1) FIG. 4. […] Key structural variations compared to telaprevir were highlighted in red. Enzymatic inhibitory activity IC50 value was determined in the FRET-based assay. Antiviral EC50 value was determined in the CPE assay with EV-D68 US/MO/14-18947 in R.D. cells. Cytotoxicity CC50 value was determined using the neutral red uptake method in R.D. cells. The results are the mean±standard deviation of two independent experiments with three repeats in each experiment.
as §1, with “5.” for “4.”, “Jun8861” for “telaprevir”
Protein expression and purification. EV-D68 2A^pro gene from strain US/KY/14-18953 was ordered from Genscript (Piscataway, NJ) in pET28b(+) vector with E. coli codon optimization. 2A^pro gene was subcloned into pE-SUMOstar vector according to the manufacturers protocol. Plasmid encoding WT-2A^pro was transformed into BL21(DE3) competent E. coli cells, and a single colony was picked and used to inoculate 10 mL of L.B. grown supplemented with 50 μg/mL kanamycin at 37° C. at 250 rpm. The 10 mL inoculant was added to 1 L of L.B. with 50 μg/mL kanamycin and grown to an OD600 of 0.8-1.0, cooled to 18° C., then induced using 0.5 mM IPTG. Induced cultures were incubated at 18° C. for an additional 24 h, then harvested and resuspended in lysis buffer (25 mM Tris (pH 7.5); 750 mM NaCl, 2 mM DTT with 0.5 mg/mL lysozyme, 0.5 mM PMSF and 0.02 mg/mL DNase I) and lysed with alternating sonication and French press cycles. The cell debris were removed by centrifugation at 12,000×g for 45 min […]. The supernatant was incubated with Ni-NTA resin for over 2 h at 4° C. on a rotator. The Ni-NTA resin was thoroughly washed with 50 mM imidazole in wash buffer (50 mM Tris (pH 7.5), 150 mM NaCl, and 2 mM DTT); for the SUMO-tagged protein, the protein was directly eluted with 300 mM imidazole; for the nontagged 2A^pro Ni-NTA resin was treated with SUMO Protease 1 to remove the SUMO tag, then 2A^pro was washed off from the column with 10 mM imidazole in wash buffer. The imidazole was removed via dialysis or 10 K molecular weight cut-off centrifugal concentrator spin column. The purity of the protein was confirmed with SDS-PAGE. The protein concentration was determined by classic BCA assay using bovine serum albumin as a standard. EV-D68 3C^pro in pET28b(+) vector was expressed as previously described^10.
Peptide synthesis. The FRET substrate of EV-D68 2A^pro, Dabcyl-KIRIVNT/GPGFGGE-Edans, was synthesized using the Fmoc solid phase synthesis strategy.
Enzymatic assays. The reaction buffer contains 50 mM Tris (pH7.0), 150 mM NaCl, 10% Glycerol, and 2 mM DTT, and the reaction was carried out at 30° C. in Cytation 5 imaging reader (Fisher Scientific) with EX360/40-EM460/40 filter. Reactions were monitored every 90 sec. […] The reaction was initiated by adding 20 μM of FRET substrate, and the reaction was monitored for 2 hours and initial velocity was calculated for the first 30 minutes via linear regression.

SMILES	IC50 [nM]
CC(C)(C)[C@H](NC(=O)CC12CC3CC(CC(C3)C1)C2)C(=O)N1C[C@@H]2CCC[C@@H]2[C@H]1C(=O)N[C@@H](Cc1ccsc1)C(=O)C(=O)NC1CC1 [Jun11818]	120 ± 20
CC(C)(C)[C@H](NC(=O)CC12CC3CC(CC(C3)C1)C2)C(=O)N1C[C@@H]2CCC[C@@H]2[C@H]1C(=O)NC1(C(=O)C(=O)NC2CC2)CCCCC1 [Jun11805, (1S,3aR,6aS)-2-((S)-2-(2-((3S,5S,7S)-adamantan-1-yl)acetamido)-3,3-dimethylbutanoyl)-N-(1-(2-(cyclopropylamino)-2-oxoacetyl)cyclohexyl)octahydrocyclopenta[c]pyrrole-1-carboxamide]	740 ± 140
CCCC(NC(=O)C1C2CCCC2CN1C(=O)C(NC(=O)CC1C2CC3CC(C2)CC1C3)C(C)(C)C)C(=O)C(=O)NC1CC1 [Jun1024, (1S)-2-((S)-2-(2-((1S,3S,5S,7S)-adamantan-2-yl)acetamido)-3,3-dimethylbutanoyl)-N—((S)-1-(cyclopropylamino)-1,2-dioxohexan-3-yl)octahydrocyclopenta[c]pyrrole-1-carboxamide]	120 ± 10
CCCC(NC(=O)C1C2CCCC2CN1C(=O)C(NC(=O)CC12CC3CC(CC(O)(C3)C1)C2)C(C)(C)C)C(=O)C(=O)NC1CC1 [Jun922, (1S,3aR,6aS)—N—((S)-1-(cyclopropylamino)-1,2-dioxohexan-3-yl)-2-((S)-2-(2-((1r,3R,5R,7S)-3-hydroxyadamantan-1-yl)acetamido)-3,3-dimethylbutanoyl)octa-hydrocyclopenta[c]pyrrole-1-carboxamide]	400 ± 50
CC(C)(C)[C@H](NC(=O)CC12CC3CC(CC(C3)C1)C2)C(=O)N1C[C@@H]2CCC[C@@H]2[C@H]1C(=O)N[C@H](C(=O)C(=O)NC1CC1)c1ccc(F)cc1 [Jun11861, (1S,3aR,6aS)-2-((S)-2-(2-((3S,5S,7S)-adamantan-1-yl)acetamido)-3,3-dimethylbutanoyl)-N—((S)-3-(cyclopropylamino)-1-(4-fluorophenyl)-2,3-dioxopropyl)octahydrocyclopenta[c]pyrrole-1-carboxamide]	350 ± 130
COC[C@H](NC(=O)[C@@H]1[C@H]2CCC[C@H]2CN1C(=O)[C@@H](NC(=O)CC12CC3CC(CC(C3)C1)C2)C(C)(C)C)C(=O)C(=O)NC1CC1 [Jun11672, (1S,3aR,6aS)-2-((S)-2-(2-((3S,5S,7S)-adamantan-1-yl)acetamido)-3,3-dimethylbutanoyl)-N—((S)-4-(cyclopropylamino)-1-methoxy-3,4-dioxobutan-2-yl)octahydrocyclopenta[c]pyrrole-1-carboxamide]	120 ± 70
CC(C)(C)[C@H](NC(=O)CC12CC3CC(CC(C3)C1)C2)C(=O)N1C[C@@H]2CCC[C@@H]2[C@H]1C(=O)N[C@H](C(=O)C(=O)NC1CC1)c1ccccc1 [Jun11817, (1S,3aR,6aS)-2-((S)-2-(2-((3S,5S,7S)-adamantan-1-yl)acetamido)-3,3-dimethylbutanoyl)-N—((S)-3-(cyclopropylamino)-2,3-dioxo-1-phenylpropyl)octahydrocyclopenta[c]pyrrole-1-carboxamide]	230 ± 80
CC(C)(C)[C@H](NC(=O)CC12CC3CC(CC(C3)C1)C2)C(=O)N1C[C@@H]2CCC[C@@H]2[C@H]1C(=O)NC1(C(=O)C(=O)NC2CC2)CCC1 [Jun11806, (1S,3aR,6aS)-2-((S)-2-(2-((3S,5S,7S)-adamantan-1-yl)acetamido)-3,3-dimethylbutanoyl)-N-(1-(2-(cyclopropylamino)-2 oxoacetyl)cyclobutyl)octahydrocyclopenta[c]pyrrole-1-carboxamide]	4810 ± 810
CC(C)(C)C(NC(=O)CC12CC3CC(CC(C3)C1)C2)C(=O)N1CC2CCCC2C1C(=O)NC(C(=O)C(N)=O)C1CCCCC1 [Jun11725, (1S,3aR,6aS)-2-((S)-2-(2-((3S,5S,7S)-adamantan-1-yl)acetamido)-3,3-dimethylbutanoyl)-N—((S)-3-amino-1-cyclohexyl-2,3-dioxopropyl)octahydro-cyclopenta[c]pyrrole-1-carboxamide]	190 ± 20
